How the values were obtained:
[1] = Reduction of propionyl-CoA in human hepatocytes derived from propionic acidemia patient at 30 uM pretreated for 30 mins followed by 13C-isoleucine addition and measured after 1 hr by MS/MS analysis relative to control; format: functional, Hepatocyte; parameters: scale not given: the % may be the effect or the level left; settings: time 90 min, 1.5 h
[2] = Reduction of propionyl carnitine in human hepatocytes derived from propionic acidemia patient at 30 uM pretreated for 30 mins followed by 13C-isoleucine addition and measured after 1 hr by MS/MS analysis relative to control; format: functional, Hepatocyte; parameters: scale not given: the % may be the effect or the level left; settings: time 90 min, 1.5 h
[3] = Reduction of 2-Methylcitric acid in human hepatocytes derived from methylmalonic acidemia patient pretreated for 30 mins followed by 13C-isoleucine addition and measured after 1 hr by MS/MS analysis; format: functional, cell-based; settings: hepatocyte
[4] = Reduction of CoASH in human hepatocytes derived from propionic acidemia patient pretreated for 30 mins followed by 13C-isoleucine addition and measured after 1 hr by MS/MS analysis; format: functional, cell-based; settings: hepatocyte
[5] = Drug metabolism in Beagle dog hepatocytes assessed as formation of 2,2-dimethylbutanoic acid-CoA incubated for 1 hrs by MS/MS analysis; format: ADME, cell-based; settings: Canis lupus familiaris, Hepatocyte
[6] = Apparent permeability across apical to basal side in human MDCK2-MDR1; format: ADME, Canis lupus familiaris; settings: dog, MDCK-MDR1
[7] = Protein binding in Gottingen minipig plasma at 40 uM incubated for 4 hrs by equilibrium dialysis; format: ADME, cell-free, Sus scrofa domesticus; settings: pig, read-out: PPB (converted)
[8] = molecular target: T1, OAT3 (Homo sapiens, UniProt Q8TCC7); test: Inhibition of human OAT3 assessed as reduction in OAT3-mediated tenofovir transport at 14900 uM relative to control; settings: not told, probe tenofovir
T1 sequence (Q8TCC7 whole entry): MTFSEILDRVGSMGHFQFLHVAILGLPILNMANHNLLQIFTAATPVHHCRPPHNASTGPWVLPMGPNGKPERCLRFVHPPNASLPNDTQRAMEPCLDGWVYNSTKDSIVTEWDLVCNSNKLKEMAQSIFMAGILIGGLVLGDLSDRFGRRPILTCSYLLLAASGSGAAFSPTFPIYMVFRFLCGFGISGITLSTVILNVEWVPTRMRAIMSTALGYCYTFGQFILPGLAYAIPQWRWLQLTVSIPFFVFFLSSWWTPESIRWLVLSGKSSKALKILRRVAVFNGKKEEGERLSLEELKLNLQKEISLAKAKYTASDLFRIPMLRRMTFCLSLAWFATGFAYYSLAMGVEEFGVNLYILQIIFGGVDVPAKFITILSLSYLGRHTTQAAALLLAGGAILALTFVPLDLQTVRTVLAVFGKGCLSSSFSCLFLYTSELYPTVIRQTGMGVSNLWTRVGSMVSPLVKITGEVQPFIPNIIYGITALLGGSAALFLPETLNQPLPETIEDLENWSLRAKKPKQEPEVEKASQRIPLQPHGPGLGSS

[9] = Ratio of drug level in erythrocyte to plasma in human; format: ADME; settings: erythrocytes and plasma
[10] = Cmax in CD1 mouse at 300 mg/kg, po; format: ADME, organism-based; parameters: route oral, dose 300 mg/kg; settings: in vivo
[11] = Tmax in CD1 mouse at 30 mg/kg, po; format: ADME, organism-based; settings: in vivo
[12] = Clearance in CD1 mouse at 30 mg/kg, iv; format: ADME, organism-based; settings: in vivo
[13] = AUC (0 to infinity) in CD1 mouse at 30 mg/kg, po; format: ADME, organism-based; parameters: time infinity, route oral, dose 30 mg/kg; settings: in vivo
[14] = Tmax in Sprague-Dawley rat at 10 mg/kg, po; format: ADME, organism-based; settings: in vivo
[15] = Tmax in Sprague-Dawley rat at 50 mg/kg, po; format: ADME, organism-based; settings: in vivo
[16] = Half life in Sprague-Dawley rat at 10 mg/kg, po; format: ADME, organism-based; settings: in vivo
[17] = Half life in Sprague-Dawley rat at 10 mg/kg, iv; format: ADME, organism-based; settings: in vivo
[18] = Oral bioavailability in Sprague-Dawley rat at 50 mg/kg; format: ADME, organism-based; settings: in vivo
[19] = Tmax in Gottingen minipig at 10 mg/kg, po using radiolabeled compound by quantitative whole-body autoradiography; format: ADME, organism-based, Sus scrofa domesticus; settings: pig, in vivo
[20] = Drug level in Gottingen minipig blood at 10 mg/kg, po using radiolabeled compound measured after 96 hrs by quantitative whole-body autoradiography; format: ADME, organism-based, Sus scrofa domesticus; settings: pig, in vivo, BLD = below limit of detection
[21] = test system: Hepatocyte; test: Cytotoxicity against human hepatocytes assessed as reduction in cell viability using radiolabeled compound; format: cell-based
[22] = Stability in rat hepatocytes assessed as unchanged compound at 50 uM measured after 4 hrs; format: ADME, cell-based, Hepatocyte; settings: read-out: Stabilty
[23] = Drug metabolism in Sprague-Dawley rat urine assessed as HST5040-carnitine metabolite formation at 10 mg/kg administered as single dose by LC/MS analysis; format: ADME, organism-based; settings: in vivo
[24] = Drug metabolism in Sprague-Dawley rat feces assessed as HST5040-glycine metabolite formation at 10 mg/kg administered as single dose by LC/MS analysis; format: ADME, organism-based; settings: in vivo
[25] = Drug metabolism in Gottingen minipig plasma assessed as HST5040-glycine metabolite formation at 10 mg/kg administered as single dose by LC/MS analysis; format: ADME, organism-based, Sus scrofa domesticus; settings: pig, in vivo
[26] = Drug metabolism in minipig hepatocytes assessed as beta-oxidation by measuring phase1 metabolite formation at 50 uM measured after 4 hrs; format: ADME, cell-based, Sus scrofa domesticus, Hepatocyte; settings: pig
[27] = molecular target: T2, Cytochrome P450 3A4 (Homo sapiens, UniProt P08684); test: Direct inhibition of CYP3A4 in human liver microsomes using testosterone as substrate; format: ADME
[28] = molecular target: T2, Cytochrome P450 3A4; test: Time-dependent inhibition of CYP3A4 in human liver microsomes using midazolam as substrate preincubated for 30 mins; format: ADME
[29] = molecular target: T3, Organic anion transporter 3 (Homo sapiens, UniProt Q8TCC7); test: Inhibition of human OAT3 assessed as reduction in OAT3-mediated tenofovir transport
T3 sequence (Q8TCC7 whole entry): T1 sequence (Q8TCC7 whole entry)

[30] = molecular target: T4, OATP1B1 (Homo sapiens, UniProt Q9Y6L6); test: Inhibition of human OATP1B1 assessed as reduction in OATP1B1- mediated E217betaG transport at 14900 uM relative to control; settings: not told, probe E217betaG
T4 sequence (Q9Y6L6 whole entry): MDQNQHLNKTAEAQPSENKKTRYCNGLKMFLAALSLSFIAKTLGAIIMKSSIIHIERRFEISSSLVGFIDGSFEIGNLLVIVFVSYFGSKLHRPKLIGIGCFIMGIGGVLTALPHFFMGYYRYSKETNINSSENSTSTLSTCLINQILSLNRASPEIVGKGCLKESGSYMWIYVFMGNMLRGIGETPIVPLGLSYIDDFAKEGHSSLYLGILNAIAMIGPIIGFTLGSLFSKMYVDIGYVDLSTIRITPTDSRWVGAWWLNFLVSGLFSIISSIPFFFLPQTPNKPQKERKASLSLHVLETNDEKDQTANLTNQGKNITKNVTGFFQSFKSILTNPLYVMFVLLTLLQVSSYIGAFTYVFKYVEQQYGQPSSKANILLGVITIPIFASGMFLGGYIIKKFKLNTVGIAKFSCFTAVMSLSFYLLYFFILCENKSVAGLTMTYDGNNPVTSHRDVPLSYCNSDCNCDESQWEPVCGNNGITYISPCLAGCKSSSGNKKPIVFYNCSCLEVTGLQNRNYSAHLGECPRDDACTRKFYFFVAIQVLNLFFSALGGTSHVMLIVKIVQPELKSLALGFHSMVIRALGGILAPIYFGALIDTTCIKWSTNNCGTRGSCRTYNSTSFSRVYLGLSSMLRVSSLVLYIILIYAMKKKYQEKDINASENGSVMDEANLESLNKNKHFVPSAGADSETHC

T2 sequence (P08684 whole entry): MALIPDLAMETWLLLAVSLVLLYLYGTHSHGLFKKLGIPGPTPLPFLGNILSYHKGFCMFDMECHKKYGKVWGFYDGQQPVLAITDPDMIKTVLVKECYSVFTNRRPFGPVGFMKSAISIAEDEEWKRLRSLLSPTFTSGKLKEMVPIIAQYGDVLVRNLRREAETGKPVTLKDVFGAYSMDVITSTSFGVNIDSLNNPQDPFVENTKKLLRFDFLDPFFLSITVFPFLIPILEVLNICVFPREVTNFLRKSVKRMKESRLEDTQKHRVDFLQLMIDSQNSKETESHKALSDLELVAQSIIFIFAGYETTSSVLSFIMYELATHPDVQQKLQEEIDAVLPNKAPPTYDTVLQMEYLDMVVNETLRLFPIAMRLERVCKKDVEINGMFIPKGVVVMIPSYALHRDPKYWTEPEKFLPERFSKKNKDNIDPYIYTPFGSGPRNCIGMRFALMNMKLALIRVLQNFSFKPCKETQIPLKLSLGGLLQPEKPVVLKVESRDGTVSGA

- Papp A→B [6]: > 20 ×10⁻⁶ cm/s
- fraction unbound at 4 h, 40 µM [7]: 0.55
- inhibition at 14900 µM [8]: 90.9%
- Kp [9]: 0.343
- Cmax [10]: 465 µg/mL
- Tmax [11]: 26.3 min
- clearance [12]: 7.28 mL/min/kg
- AUC(0-inf) [13]: 37500 ng·h/mL
- Tmax [14]: 15 min
- Tmax [15]: 20 min
- half-life [16]: 190 min
- half-life [17]: 236 min
- bioavailability [18]: 68.3%
- Tmax [19]: 30 min
- Drug uptake [20]: Bld
- remaining at 4 h, 50 µM [22]: 86%
- Drug metabolism [23]: Metabolite_Detected
- Drug metabolism [24]: Metabolite_Detected
- Drug metabolism [25]: Metabolite_Detected
- Drug metabolism [26]: Metabolite_Notdetected
- IC50 [27]: > 10000 µM
- IC50 [28]: > 10000 µM
- IC50 [29]: 3510 µM
- inhibition at 14900 µM [30]: 25.9%
Structure (SMILES): CCC(C)(C)C(=O)O [DIMEBUTIC ACID]
- Activity [1]: -78.8%
- Activity [2]: -69.4%
- EC50 [3]: 0.8 µM
- EC50 [4]: 11.6 µM
- EC50 [5]: 60 µM
- Activity [21]: Non-Toxic
